Where two headings read alike, the source gives them in different places.
Legend:
[1] = target: T1, GSK3a (GST-full length GSK3a) (Homo sapiens, UniProt P49840); assay: GSK3a TR-FRET kinase inhibition assay; type: biochemical
T1 construct: GST-full length GSK3a [SignalChem G08-10G]; purchased SignalChem G08-10G
Summary of the method: (§1)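 IC50 derived from normalized 665/615 TR-FRET signal (Tb anti-pSer641 antibody, streptavidin-d2), read after EDTA stop. Reaction: 1 nM GST-full-length enzyme, 30 min compound pre-incubation, 100 min at ambient temperature in Tris pH 7.5 with 1% DMSO, 200 nM biotinylated primed glycogen synthase peptide, ATP 2 μM to 1 mM.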

[2] = target: T2, GSK3b (GST-full length GSK3b) (Homo sapiens, UniProt P49841); assay: GSK3b TR-FRET kinase inhibition assay; type: biochemical
T2 construct: GST-full length GSK3b: [SignalChem G08-9G]; purchased SignalChem G08-9G
T2 sequence (P49841 whole entry): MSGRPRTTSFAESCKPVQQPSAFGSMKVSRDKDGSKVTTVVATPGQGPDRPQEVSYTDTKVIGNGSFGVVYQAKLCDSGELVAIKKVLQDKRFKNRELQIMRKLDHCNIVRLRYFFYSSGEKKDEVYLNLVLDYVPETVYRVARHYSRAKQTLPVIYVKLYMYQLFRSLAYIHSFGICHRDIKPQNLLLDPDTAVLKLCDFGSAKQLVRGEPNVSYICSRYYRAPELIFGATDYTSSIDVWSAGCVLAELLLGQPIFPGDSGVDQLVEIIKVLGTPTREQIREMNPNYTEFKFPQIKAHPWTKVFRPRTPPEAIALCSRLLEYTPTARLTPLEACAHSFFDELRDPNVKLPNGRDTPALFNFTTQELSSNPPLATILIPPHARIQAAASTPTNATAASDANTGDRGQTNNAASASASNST
Summary of the method: as §1

[3] = 1 mM ATP, Table 3, read-out: GSK3a TR-FRET 1 mM ATP Average IC50
[4] = 1 mM ATP, Table 3, read-out: GSK3b TR-FRET 1 mM ATP Average IC50
[5] = 1 mM ATP, Table 5, read-out: GSK3α TR-FRET 1 mM ATP Average IC50
[6] = 1 mM ATP, Table 5, read-out: GSK3β TR-FRET 1 mM ATP Average IC50
[7] = 100 μM ATP, read-out: GSK3a 100 μM ATP Average IC50
[8] = 100 μM ATP, read-out: GSK3b 100 μM ATP Average IC50
[9] = 4 μM ATP, read-out: GSK3α TR-FRET 4 μM ATP GMean IC50
[10] = 2 μM ATP, read-out: GSK3β TR-FRET 2 μM ATP GMean IC50

T1 sequence (P49840 whole entry): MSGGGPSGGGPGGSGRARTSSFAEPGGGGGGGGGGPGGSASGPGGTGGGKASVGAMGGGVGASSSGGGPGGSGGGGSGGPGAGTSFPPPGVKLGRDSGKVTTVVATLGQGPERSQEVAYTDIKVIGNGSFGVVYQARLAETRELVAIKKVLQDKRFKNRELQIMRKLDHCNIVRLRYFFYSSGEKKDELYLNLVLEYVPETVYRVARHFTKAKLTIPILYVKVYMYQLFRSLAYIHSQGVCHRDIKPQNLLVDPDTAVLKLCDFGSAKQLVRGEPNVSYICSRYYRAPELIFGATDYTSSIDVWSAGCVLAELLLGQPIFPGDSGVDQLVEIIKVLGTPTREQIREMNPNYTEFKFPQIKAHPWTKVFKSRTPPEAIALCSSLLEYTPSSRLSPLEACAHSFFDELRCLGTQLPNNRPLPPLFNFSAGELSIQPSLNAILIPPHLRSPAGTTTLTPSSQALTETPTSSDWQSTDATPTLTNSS

Structure (SMILES)	IC50 [2, 4] [µM]	IC50 [1, 5] [µM]	IC50 [2, 6] [µM]	also measured
CC1(C)CC(=O)C2=C(C1)Nc1ncc(F)c(C#N)c1C2(C)c1cccc(S(C)(=O)=O)c1 (single isomer, unassigned) [Compound 148A]	≤ 0.1			IC50 [1, 3]: ≤ 0.1 µM
CC(C)Oc1cccc(C2(C)C3=C(CC(C)(C)CC3=O)Nc3ncc(F)c(C#N)c32)c1 (single isomer, unassigned) [639B]		≤ 0.1	≤ 0.1	
CC1(C)CC(=O)C2=C(C1)Nc1ncccc1C2(C)c1cccc(-c2ccncc2)c1 (single isomer, unassigned) [Compound 131B]	1 to 5			IC50 [1, 3]: 1 to 5 µM
CC1(C)CC(=O)C2=C(Nc3ncc(F)c(C#N)c3[C@]2(C)c2ccccc2)[C@H]1F (single isomer, unassigned) [Compound 617A]		5 to 20	5 to 20	
CC(C)Oc1cccc(C2(C)C3=C(CC(C)(C)CC3=O)Nc3ncc4c(cnn4C)c32)c1 (single isomer, unassigned) [645A]		5 to 20	5 to 20	
COc1cncc(F)c1-c1cccc(C2(C)C3=C(CC(C)(C)CC3=O)Nc3ncc(F)cc32)c1 (single isomer, unassigned) [Compound 156A]	0.1 to 1			IC50 [1, 3]: ≤ 0.1 µM
CC1(C)CC(=O)C2=C(C1)Nc1ncc(F)c(C#N)c1C2(C)c1cccc(F)c1 (single isomer, unassigned) [618B]		0.1 to 1	0.1 to 1	
CC1(C)CC(=O)C2=C(C1)Nc1ncc(F)c(C(F)(F)F)c1C2(C)c1ccccc1 (single isomer, unassigned) [Compound 135A]	0.1 to 1			IC50 [1, 3]: 0.1 to 1 µM
CC1(C)CC(=O)C2=C(C1)Nc1ncc(F)c(C3CC3)c1C2(C)c1cccc(S(C)(=O)=O)c1 (single isomer, unassigned) [Compound 153A]	≤ 0.1			IC50 [1, 3]: ≤ 0.1 µM
CCC1(c2ccccc2)C2=C(CC(C)(C)NC2=O)Nc2ncccc21 (single isomer, unassigned) [Compound 1002A]				IC50 [1, 9]: > 5 µM; IC50 [2, 10]: > 5 µM
CCC1(c2cccc(-c3cc(C)nn3C)c2)C2=C(CC(C)(C)CC2=O)Nc2ncc(F)cc21 (single isomer, unassigned) [Compound 1033A]				IC50 [1, 9]: 1 to 5 µM; IC50 [2, 10]: > 5 µM
CC1(C)CC(=O)C2=C(C1)Nc1ncc(C(F)(F)F)c(F)c1C2(C)c1ccccc1 (single isomer, unassigned) [Compound 136B]	5 to 20			IC50 [1, 3]: 5 to 20 µM
CC1(C)CC(=O)C2=C(C1)Nc1ncc(F)cc1C2(C)c1cccc(-c2ccncc2CC(F)(F)F)c1 (single isomer, unassigned) [653A]		1 to 5	1 to 5	
CC(C)Oc1cccc(C2(C)C3=C(CC(C)(C)CC3=O)Nc3ncc(F)cc32)c1 (single isomer, unassigned) [629B]		0.1 to 1	0.1 to 1	
COc1cncc(F)c1-c1cccc(C2(C)C3=C(CC(C)(C)CC3=O)Nc3ncc(C(F)(F)F)cc32)c1 (single isomer, unassigned) [Compound 174A]	1 to 5			IC50 [1, 3]: 1 to 5 µM
CCC1(c2cccc(-c3ccnc4c3CCCC4)c2)C2=C(CC(C)(C)CC2=O)Nc2ncccc21 (single isomer, unassigned) [Compound 1039A]				IC50 [1, 9]: 0.1 to 1 µM; IC50 [2, 10]: 0.1 to 1 µM

Structure (SMILES)	IC50 [2, 4] [µM]	IC50 [1, 5] [µM]	IC50 [2, 6] [µM]	also measured
COc1cncc(F)c1-c1cccc(C2(C)C3=C(CC(C)(C)CC3=O)Nc3ncc(C4CC4)cc32)c1 (single isomer, unassigned) [Compound 167B]	1 to 5			IC50 [1, 3]: 1 to 5 µM
CC1(C)CC(=O)C2=C(C1)Nc1ncccc1C2(C)c1cccc(N(CC2CC2)c2ncccn2)c1 (single isomer, unassigned) [652A]		5 to 20	5 to 20	
CC1(C)CC2=C(C(=O)N1)C(C)(c1cccc(S(C)(=O)=O)c1)c1cc(C3CC3)cnc1N2 (single isomer, unassigned) [647A]		0.1 to 1	0.1 to 1	
CCC1(c2cccc(-c3ccncc3C)c2)C2=C(CC(C)(C)CC2=O)Nc2ncc(F)cc21 (single isomer, unassigned) [Compound 1031A]				IC50 [1, 9]: 0.1 to 1 µM; IC50 [2, 10]: 0.1 to 1 µM
CCC1(c2cccc(-c3cn(C)nc3C)c2)C2=C(CC(C)(C)CC2=O)Nc2ncccc21 (single isomer, unassigned) [Compound 1023B]				IC50 [1, 9]: 0.1 to 1 µM; IC50 [2, 10]: 1 to 5 µM
CCC1(c2ccccc2)C2=C(CC(C)(C)CC2=O)Nc2ncc(C(F)(F)F)cc21 (single isomer, unassigned) [133 A]				IC50 [1, 9]: > 5 µM; IC50 [2, 10]: > 5 µM
C=Cc1c(C(F)(F)F)cnc2c1C(C)(c1ccccc1)C1=C(CC(C)(C)CC1=O)N2 (single isomer, unassigned) [636A]		1 to 5	0.1 to 1	
CCC1(c2cccc(-c3cccnc3)c2)C2=C(CC(C)(C)CC2=O)Nc2ncccc21 (single isomer, unassigned) [Compound 1015B]				IC50 [1, 9]: 1 to 5 µM; IC50 [2, 10]: > 5 µM
CCC1(c2ccccc2)C2=C(CC3(CCC3)CC2=O)Nc2ncccc21 (single isomer, unassigned) [110 A]				IC50 [1, 9]: ≤ 0.1 µM; IC50 [2, 10]: ≤ 0.1 µM
CCC1(c2ccccc2)C2=C(CC(C)(C)CC2=O)Nc2ncc(C(F)(F)F)cc21 (single isomer, unassigned) [133 B]				IC50 [1, 9]: ≤ 0.1 µM; IC50 [2, 10]: ≤ 0.1 µM
CC1(C)CC(=O)C2=C(C1)Nc1ncc(F)c(C#N)c1C2(C)c1cccc(C(F)F)c1 (single isomer, unassigned) [634A]		5 to 20	5 to 20	
CC(C)Oc1cccc(C2(C)C3=C(CC(C)(C)CC3=O)Nc3ncc(F)c(C#N)c32)c1 (single isomer, unassigned) [639A]		5 to 20	5 to 20	
CC1(C)CC2=C(C(=O)N1)C(C)(c1ccccc1)c1c(ncc(C(F)F)c1C#N)N2 (single isomer, unassigned) [628A]		1 to 5	1 to 5	
COc1cncc(F)c1-c1cccc(C2(C)C3=C(CC(C)(C)CC3=O)Nc3ncc(C(F)(F)F)cc32)c1 (single isomer, unassigned) [Compound 174B]	0.1 to 1			IC50 [1, 3]: 1 to 5 µM
CC1(C)CC(=O)C2=C(C1)Nc1ncccc1C2(C)c1ccccc1 (single isomer, unassigned) [Compound 101B]				IC50 ([1]; 10 μM ATP, read-out: GSK3a 10 μM ATP Average IC50): 5 to 20 µM; IC50 [1, 7]: 20 to 60 µM; IC50 ([2]; 10 μM ATP, read-out: GSK3b 10 μM ATP Average IC50): 1 to 5 µM; IC50 [2, 8]: 20 to 60 µM

The next lines start with results.

IC50 [2, 4] [µM]	IC50 [1, 5] [µM]	IC50 [2, 6] [µM]	Structure (SMILES)	also measured
	5 to 20	5 to 20	CC1(C)CC(=O)C2=C(C1)Nc1ncc3ccccc3c1C2(C)c1ccccc1 (single isomer, unassigned) [606A]	
	5 to 20	1 to 5	Cn1ncc2c3c(ncc21)NC1=C(C(=O)CC(C)(C)C1)C3(C)c1ccccc1 (single isomer, unassigned) [609B]	
5 to 20			CC1(C)CC(=O)C2=C(C1)Nc1ncc(C3CCC3)cc1C2(C)c1ccccc1 (single isomer, unassigned) [Compound 122A]	IC50 [1, 7]: 1 to 5 µM; IC50 [2, 8]: 1 to 5 µM
	5 to 20	1 to 5	CC1(C)CC(=O)C2=C(C1)Nc1ncc(CO)c(C#N)c1C2(C)c1ccccc1 (single isomer, unassigned) [613B]	
	0.1 to 1	0.1 to 1	Cc1cnc2c(c1C#N)C(C)(c1ccccc1)C1=C(CC(C)(C)CC1=O)N2 (single isomer, unassigned) [603B]	
	5 to 20	5 to 20	C=Cc1cnc2c(c1Br)C(C)(c1ccccc1)C1=C(CC(C)(C)CC1=O)N2 (single isomer, unassigned) [640B]	
1 to 5			CC1(C)CC(=O)C2=C(C1)Nc1ncc(F)c(C3CC3)c1C2(C)c1ccccc1 (single isomer, unassigned) [Compound 125B]	IC50 [1, 3]: 1 to 5 µM
	5 to 20	5 to 20	CC(=O)c1cnc2c(c1C#N)C(C)(c1ccccc1)C1=C(CC(C)(C)CC1=O)N2 (single isomer, unassigned) [621A]	
	5 to 20	5 to 20	CC1(C)CC(=O)C2=C(C1)Nc1ncc(C(C)(F)F)c(C#N)c1C2(C)c1ccccc1 (single isomer, unassigned) [631A]	
1 to 5			CC1(C)CC(=O)C2=C(C1)Nc1ncc(Br)c(Cl)c1C2(C)c1ccccc1 (single isomer, unassigned) [Compound 145A]	IC50 [1, 3]: 1 to 5 µM
	5 to 20	5 to 20	CC1(C)CC(=O)C2=C(C1)Nc1ncc(C(C)(F)F)c(C#N)c1C2(C)c1ccccc1 (single isomer, unassigned) [631B]	
1 to 5			CC1(C)CC(=O)C2=C(C1)Nc1ncc(C#N)cc1C2(C)c1ccccc1 (single isomer, unassigned) [Compound 109A]	IC50 [1, 3]: 1 to 5 µM
	5 to 20	5 to 20	CC1(C)CC(=O)C2=C(C1)Nc1ncc(C3CCCC3)c(C#N)c1C2(C)c1ccccc1 (single isomer, unassigned) [635A]	
	5 to 20	5 to 20	CC1(C)CC(=O)C2=C(C1)Nc1ncc(CF)c(C#N)c1C2(C)c1ccccc1 (single isomer, unassigned) [614A]	
1 to 5			CC1(C)CC(=O)C2=C(C1)Nc1ncc(C3CC3)cc1C2(C)c1ccccc1 (single isomer, unassigned) [Compound 117A]	IC50 [1, 7]: 0.1 to 1 µM; IC50 [1, 3]: 5 to 20 µM; IC50 [2, 8]: 0.1 to 1 µM
